Here are results for 24 molecules from the supplement of paper PMC8967900.

Molecules are shown by their SMILES.

Among the test systems are KOPN-8; JURKAT; DND-41.
Experiment in all cases: selective drug sensitivity score (sDSS, relative to normal bone marrow) (sDSS (score)); higher = more potent and effective on the cell line relative to normal bone marrow cells
Common to all, as to conditions: 72 h
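Note: ALL cell lines in 384-well plates, five doses spanning 10,000-fold, each plate scaled between vehicle and 100 µmol/L benzalkonium chloride controls, sDSS an adapted area-under-curve metric.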

As for `O[C@H]1CC[C@H](Nc2ncc3nc(Nc4c(F)cc(F)cc4F)n([C@H]4CCOC4)c3n2)CC1` [Tanzisertib] (top concentration 10000 nM), the “selective drug sensitivity score” value came out at 1.4 with KOPN-8, 0 with JURKAT and 0 in the assay with DND-41.

As for `COc1cccc2c1C(=O)c1c(O)c3c(c(O)c1C2=O)C[C@@](O)(C(C)=O)C[C@@H]3O[C@H]1C[C@H](N)[C@H](O)[C@H](C)O1` [Daunorubicin] (top concentration 1000 nM), the “selective drug sensitivity score” value with KOPN-8 is 6.56; in the assay with JURKAT it was 2.96; with DND-41, -0.54.

As for `Cc1cc(OCc2nnc(SC3CCCC3)n2-c2cccnc2)ccc1-c1ccc(S(C)(=O)=O)cc1` [NMS-873] (top concentration 10000 nM), the “selective drug sensitivity score” value amounted to 4.06 with KOPN-8, 26.5 in the assay on JURKAT and 4.46 in the assay on DND-41.

Take `Nc1nc(OCc2cc(Br)cs2)c2[nH]cnc2n1` [Lomeguatrib] (top concentration 10000 nM): the “selective drug sensitivity score” value in the assay on KOPN-8, in the assay with JURKAT and in the assay with DND-41 was 0 each time.

Turning to `CO[C@H]1C[C@@H]2CC[C@@H](C)[C@@](O)(O2)C(=O)C(=O)N2CCCC[C@H]2C(=O)O[C@H]([C@H](C)C[C@@H]2CC[C@@H](OP(C)(C)=O)[C@H](OC)C2)CC(=O)[C@H](C)/C=C(\C)[C@@H](O)[C@@H](OC)C(=O)[C@H](C)C[C@H](C)/C=C/C=C/C=C/1C` [Ridaforolimus] (top concentration 100 nM), the “selective drug sensitivity score” value is 22.2 in the assay with KOPN-8, 0.26 with JURKAT and -2.54 with DND-41.

For `CO[C@H]1C[C@@H]2CC[C@@H](C)[C@@](O)(O2)C(=O)C(=O)N2CCCC[C@H]2C(=O)O[C@H]([C@H](C)C[C@@H]2CC[C@@H](OC(=O)C(C)(CO)CO)[C@H](OC)C2)CC(=O)[C@H](C)/C=C(\C)[C@@H](O)[C@@H](OC)C(=O)[C@H](C)C[C@H](C)/C=C/C=C/C=C/1C` [Temsirolimus] (top concentration 100 nM), the “selective drug sensitivity score” value with KOPN-8 is 21.9; in the assay with JURKAT, -0.54; in the assay on DND-41, 3.66.

On to `O=C(c1cc(Cc2n[nH]c(=O)c3ccccc23)ccc1F)N1CCN(C(=O)C2CC2)CC1` [Olaparib] (top concentration 10000 nM), for which the “selective drug sensitivity score” value with KOPN-8 was 9.68; in the assay on JURKAT it was 1.58; with DND-41, 1.28.

`CS(=O)(=O)N1CCN(Cc2cc3nc(-c4cccc5[nH]ncc45)nc(N4CCOCC4)c3s2)CC1` [Pictilisib] (top concentration 10000 nM): the “selective drug sensitivity score” value was 14.8 in the assay on KOPN-8, 0.36 with JURKAT and -1.44 in the assay on DND-41.

Turning to `CCc1c2c(nc3ccc(O)cc13)-c1cc3c(c(=O)n1C2)COC(=O)[C@]3(O)CC` [SN-38] (top concentration 10000 nM), the “selective drug sensitivity score” value with KOPN-8 was 28; with JURKAT it was 22.7; in the assay on DND-41, 25.5.

Take `CCN(CC)C(=S)SSC(=S)N(CC)CC` [Disulfiram(+CuCl2)] (top concentration 50000 nM): the “selective drug sensitivity score” value in the assay with KOPN-8 was 15.8; with JURKAT it was -2.12; in the assay on DND-41 it was -2.12.

For `CC(C)Oc1ccc(C(=O)N[C@H](CNC(=O)CN(C)C)Cc2ccc(-c3cn4cccc([C@H](C)O)c4n3)cc2)cc1Cl` (top concentration 10000 nM), the results for the “selective drug sensitivity score” value in the assay on KOPN-8, in the assay with JURKAT and in the assay on DND-41 were 14.2, 13.6 and -2.62, respectively.

With `CNC(=O)CN1CCC(Oc2cc3c(Nc4cccc(Cl)c4F)ncnc3cc2OC)CC1` [Sapitinib] (top concentration 1000 nM), the “selective drug sensitivity score” value in the assay with KOPN-8, with JURKAT and in the assay on DND-41 was 0 in each case.

In the case of `COC(=O)c1ccc2c(c1)NC(=O)/C2=C(\Nc1ccc(N(C)C(=O)CN2CCN(C)CC2)cc1)c1ccccc1` [Nintedanib] (top concentration 10000 nM), the “selective drug sensitivity score” value with KOPN-8 is -5.26; in the assay with JURKAT, -4.86; in the assay on DND-41 it was -3.16.

Regarding `CCOC(=O)C1=CCCC[C@H]1S(=O)(=O)Nc1ccc(F)cc1Cl` [Resatorvid] (top concentration 10000 nM), the entries for the “selective drug sensitivity score” value with KOPN-8, in the assay on JURKAT and in the assay with DND-41 were 0.2, 0 and 0, respectively.

Regarding `CC[C@@H](C(=O)[C@@H](C)[C@@H](O)[C@H](C)[C@@H]1O[C@@H]([C@@H](CC)C(=O)O)CC[C@@H]1C)[C@H]1O[C@]2(C=C[C@@H](O)[C@]3(CC[C@@](C)([C@H]4CC[C@](O)(CC)[C@H](C)O4)O3)O2)[C@H](C)C[C@@H]1C` [Salinomycin] (top concentration 50000 nM), the “selective drug sensitivity score” value with KOPN-8 is -8.4; in the assay with JURKAT it was 3.1; in the assay with DND-41 it was 4.7.

Take `Cc1sc2c(c1C)C(c1ccc(Cl)cc1)=N[C@@H](CC(=O)Nc1ccc(O)cc1)c1nnc(C)n1-2` [Birabresib] (top concentration 10000 nM): the “selective drug sensitivity score” value in the assay with KOPN-8 was 11.6; with JURKAT, -1.98; in the assay with DND-41, 0.92.

Regarding `Nc1ncn([C@H]2C[C@H](O)[C@@H](CO)O2)c(=O)n1` [Decitabine] (top concentration 10000 nM), the “selective drug sensitivity score” value in the assay on KOPN-8 is 10.2; in the assay with JURKAT, 4.04; with DND-41, -4.66.

On to `COc1cc([C@@H]2c3cc4c(cc3[C@@H](O[C@@H]3O[C@@H]5CO[C@@H](c6cccs6)O[C@H]5[C@H](O)[C@H]3O)[C@H]3COC(=O)[C@H]23)OCO4)cc(OC)c1O` [Teniposide] (top concentration 10000 nM), for which the “selective drug sensitivity score” value with KOPN-8, in the assay on JURKAT and with DND-41 was 0 throughout.

Consider `Nc1nc(F)nc2c1ncn2[C@@H]1O[C@H](CO)[C@@H](O)[C@@H]1O` [Fludarabine] (top concentration 10000 nM), for which the figures for the “selective drug sensitivity score” value in the assay with KOPN-8, in the assay on JURKAT and with DND-41 were 8.4, -5.5 and 5.5, respectively.

In the case of `CCn1c(-c2nonc2N)nc2cnc(Oc3cccc(NC(=O)c4ccc(OCCN5CCOCC5)cc4)c3)cc21` (top concentration 10000 nM), the “selective drug sensitivity score” value with KOPN-8 was 11.3; with JURKAT it was 3.76; with DND-41, 0.86.

With `CC(C)(C#N)c1cc(Cn2cncn2)cc(C(C)(C)C#N)c1` [Anastrozole] (top concentration 10000 nM), the “selective drug sensitivity score” value with KOPN-8 was 0; in the assay with JURKAT it was 0; in the assay with DND-41, 2.9.

As for `O=C(O)C(=O)O.[NH-][C@@H]1CCCC[C@H]1[NH-].[Pt+2]` [Oxaliplatin] (top concentration 100000 nM), the “selective drug sensitivity score” value turned out to be 16.9 with KOPN-8, 5.52 in the assay on JURKAT and 1.42 in the assay with DND-41.

For `Oc1nc(-c2ccc(C(F)(F)F)cc2)nc2c1CSCC2` [XAV939] (top concentration 10000 nM), the results for the “selective drug sensitivity score” value in the assay on KOPN-8, with JURKAT and in the assay on DND-41 were 0.66, -0.14 and -0.14, respectively.

Consider `Nc1ccn([C@@H]2O[C@H](CO)[C@@H](O)[C@@H]2O)c(=O)n1` [Cytarabine] (top concentration 10000 nM), for which the “selective drug sensitivity score” value in the assay with KOPN-8 came out at 20.9; in the assay with JURKAT it was 17.9; in the assay with DND-41, 16.3.
